Assay results as given in US9232795B2, “Herbicidal compositions comprising 4-amino-3-chloro-6-(4-chloro-2-fluoro-3-methoxyphenyl) pyridine-2-carboxylic acid or a derivative thereof and flurtamone” (Dow AgroSciences LLC, priority 2012, dated 2016).

Key:
Assay type in all cases: in vivo
Chenpodium album L. = assay: greenhouse trial, foliar applied compositions, CHEAL (common lambsquarters)
From the text: (§1) More specifically, the following equation is used to calculate the expected activity of mixtures containing two herbicidal active ingredients: Expected=A+B−(A×B/100) A=observed efficacy of a first active ingredient at the same concentration as used in the mixture; B=observed efficacy of the second active ingredient (or product, which may contain a combination of active ingredients) at the same concentration as used in the mixture. For mixtures containing three herbicidal active ingredients, the following equation can be used to calculate the expected activity: Expected=100−[(100−A)(100−B)(100−C)/10,000] A=observed efficacy of a first active ingredient at the same concentration as used in the mixture; B=observed efficacy of a second active ingredient B at the same concentration as used in the mixture; C=observed efficacy of a third active ingredient C at the same concentration as used in the mixture.
(§2) Results in Tables 1-12 are greenhouse trial results for foliar applied compositions.
(§3) g/ha=grams acid equivalent per hectare for Cmpd 1 and grams active ingredient per hectare for flurtamone, flufenacet, and diflufenican Obs=observed value Exp=expected value as calculated by the equations set forth above. Cmpd 1=methyl 4-amino-3-chloro-6-(4-chloro-2-fluoro-3-methoxyphenyl)-pyridine-2-carboxylate

Euphorbia heterohylla L. = assay: greenhouse trial, foliar applied compositions, EPHHL (wild poinsettia)
From the text: as §1, §2, §3

[1] = test system: Amaranthus retroflexus L.; assay: greenhouse trial, foliar applied compositions, AMARE (redroot pigweed)
From the text: as §1, §2, §3

[2] = test system: Cirsium arvense (L.) Scop.; assay: greenhouse trial, foliar applied compositions, CIRAR (Canada thistle)
From the text: as §1, §2, §3

Ipomoea hederacea = assay: greenhouse trial, foliar applied compositions, IPOHE (ivyleaf morningglory)
From the text: as §1, §2, §3

Setaria faberi Herrm. = assay: greenhouse trial, foliar applied compositions, SETFA (giant foxtail)
From the text: as §1, §2, §3

[3] = test system: Stellaria media (L.) Vill.; assay: greenhouse trial, foliar applied compositions, STEME (common chickweed)
From the text: as §1, §2, §3

[4] = test system: Abutilon theophrasti Medik.; assay: greenhouse trial, foliar applied compositions, ABUTH (velvetleaf)
From the text: as §1, §2, §3

Viola tricolor L. = assay: greenhouse trial, foliar applied compositions, VIOTR (wild violet)
From the text: as §1, §2, §3

Cyperus esculentus L. = assay: greenhouse trial, foliar applied compositions, CYPES (yellow nutsedge)
From the text: as §1, §2, §3

[5] = test system: Triticum aestivum (spring); assay: greenhouse trial, foliar applied compositions, TRZAS (spring wheat)
From the text: as §1, §2, §3

[6] = foliar applied, Cmpd 1 5.00 g/ha

CNC1=C(c2cccc(C(F)(F)F)c2)C(=O)C(c2ccccc2)O1 (racemic) [Flurtamone, (±)-5-(methylamino)-2-phenyl-4-[3-(trifluoromethyl)phenyl]-3(2H)-furanone]
CHEAL Obs (Chenpodium album L.; Flurtamone 62.5 g/ha): 25 | CHEAL Obs (Chenpodium album L.; Flurtamone 125 g/ha): 40 | EPHHL Obs (Euphorbia heterohylla L.; Flurtamone 62.5 g/ha): 25 | EPHHL Obs (Euphorbia heterohylla L.; Flurtamone 125 g/ha): 40 | AMARE Obs ([1]; Flurtamone 62.5 g/ha): 40 | AMARE Obs ([1]; Flurtamone 125 g/ha): 65 | CIRAR Obs ([2]; Flurtamone 62.5 g/ha): 88 | CIRAR Obs ([2]; Flurtamone 125 g/ha): 95 | IPOHE Obs (Ipomoea hederacea; Flurtamone 62.5 g/ha): 25 | IPOHE Obs (Ipomoea hederacea; Flurtamone 125 g/ha): 33 | SETFA Obs (Setaria faberi Herrm.; Flurtamone 62.5 g/ha): 0 | SETFA Obs (Setaria faberi Herrm.; Flurtamone 125 g/ha): 10 | STEME Obs ([3]; Flurtamone 62.5 g/ha): 20 | STEME Obs ([3]; Flurtamone 125 g/ha): 30 | ABUTH Obs ([4]; Flurtamone 62.5 g/ha): 40 | ABUTH Obs ([4]; Flurtamone 125 g/ha): 63 | VIOTR Obs (Viola tricolor L.; Flurtamone 62.5 g/ha): 25 | VIOTR Obs (Viola tricolor L.; Flurtamone 125 g/ha): 30 | CYPES Obs (Cyperus esculentus L.; Flurtamone 62.5 g/ha): 5 | CYPES Obs (Cyperus esculentus L.; Flurtamone 125 g/ha): 8 | TRZAS Obs ([5]; Flurtamone 62.5 g/ha): 0 | TRZAS Obs ([5]; Flurtamone 125 g/ha): 0

COC(=O)c1nc(-c2ccc(Cl)c(OC)c2F)cc(N)c1Cl [Cmpd 1, methyl 4-amino-3-chloro-6-(4-chloro-2-fluoro-3-methoxyphenyl)-pyridine-2-carboxylate]
CHEAL Obs (Chenpodium album L.; Cmpd 1 1.25 g/ha): 60 | CHEAL Obs (Chenpodium album L.; Cmpd 1 2.50 g/ha): 83 | CHEAL Obs (Chenpodium album L.; Cmpd 1 5.00 g/ha): 85 | CHEAL Obs (Chenpodium album L.; [6]): 85 | EPHHL Obs (Euphorbia heterohylla L.; Cmpd 1 1.25 g/ha): 60 | EPHHL Obs (Euphorbia heterohylla L.; Cmpd 1 2.50 g/ha): 89 | EPHHL Obs (Euphorbia heterohylla L.; Cmpd 1 5.00 g/ha): 92 | EPHHL Obs (Euphorbia heterohylla L.; [6]): 92 | AMARE Obs ([1]; Cmpd 1 1.25 g/ha): 30 | AMARE Obs ([1]; Cmpd 1 2.50 g/ha): 93 | AMARE Obs ([1]; Cmpd 1 5.00 g/ha): 78 | AMARE Obs [1, 6]: 78 | CIRAR Obs ([2]; Cmpd 1 1.25 g/ha): 20 | CIRAR Obs ([2]; Cmpd 1 2.50 g/ha): 55 | CIRAR Obs ([2]; Cmpd 1 5.00 g/ha): 75 | CIRAR Obs [2, 6]: 75 | IPOHE Obs (Ipomoea hederacea; Cmpd 1 1.25 g/ha): 15 | IPOHE Obs (Ipomoea hederacea; Cmpd 1 2.50 g/ha): 15 | IPOHE Obs (Ipomoea hederacea; Cmpd 1 5.00 g/ha): 35 | SETFA Obs (Setaria faberi Herrm.; Cmpd 1 1.25 g/ha): 0 | SETFA Obs (Setaria faberi Herrm.; Cmpd 1 2.50 g/ha): 5 | SETFA Obs (Setaria faberi Herrm.; Cmpd 1 5.00 g/ha): 0 | STEME Obs ([3]; Cmpd 1 1.25 g/ha): 20 | STEME Obs ([3]; Cmpd 1 2.50 g/ha): 58 | STEME Obs ([3]; Cmpd 1 5.00 g/ha): 65 | STEME Obs [3, 6]: 65 | ABUTH Obs ([4]; Cmpd 1 1.25 g/ha): 78 | ABUTH Obs ([4]; Cmpd 1 2.50 g/ha): 91 | ABUTH Obs ([4]; Cmpd 1 5.00 g/ha): 98 | VIOTR Obs (Viola tricolor L.; Cmpd 1 1.25 g/ha): 5 | VIOTR Obs (Viola tricolor L.; Cmpd 1 2.50 g/ha): 15 | VIOTR Obs (Viola tricolor L.; Cmpd 1 5.00 g/ha): 23 | VIOTR Obs (Viola tricolor L.; [6]): 23 | CYPES Obs (Cyperus esculentus L.; Cmpd 1 1.25 g/ha): 58 | CYPES Obs (Cyperus esculentus L.; Cmpd 1 2.50 g/ha): 85 | CYPES Obs (Cyperus esculentus L.; Cmpd 1 5.00 g/ha): 81 | CYPES Obs (Cyperus esculentus L.; [6]): 81 | TRZAS Obs ([5]; Cmpd 1 1.25 g/ha): 0 | TRZAS Obs ([5]; Cmpd 1 2.50 g/ha): 0 | TRZAS Obs ([5]; Cmpd 1 5.00 g/ha): 0

O=C(Nc1ccc(F)cc1F)c1cccnc1Oc1cccc(C(F)(F)F)c1 [Diflufenican, N-(2,4-difluorophenyl)-2-[3-(trifluromethyl)phenoxy]-3-pyridinecarboxamide]
CHEAL Obs (Chenpodium album L.; Diflufenican 25 g/ha): 25 | CHEAL Obs (Chenpodium album L.; Diflufenican 50 g/ha): 25 | EPHHL Obs (Euphorbia heterohylla L.; Diflufenican 25 g/ha): 43 | EPHHL Obs (Euphorbia heterohylla L.; Diflufenican 50 g/ha): 50 | AMARE Obs ([1]; Diflufenican 25 g/ha): 25 | AMARE Obs ([1]; Diflufenican 50 g/ha): 50 | CIRAR Obs ([2]; Diflufenican 25 g/ha): 28 | CIRAR Obs ([2]; Diflufenican 50 g/ha): 25 | IPOHE Obs (Ipomoea hederacea; Diflufenican 25 g/ha): 10 | IPOHE Obs (Ipomoea hederacea; Diflufenican 50 g/ha): 13 | SETFA Obs (Setaria faberi Herrm.; Diflufenican 25 g/ha): 8 | SETFA Obs (Setaria faberi Herrm.; Diflufenican 50 g/ha): 5 | STEME Obs ([3]; Diflufenican 25 g/ha): 10 | STEME Obs ([3]; Diflufenican 50 g/ha): 15 | ABUTH Obs ([4]; Diflufenican 25 g/ha): 15 | ABUTH Obs ([4]; Diflufenican 50 g/ha): 15 | VIOTR Obs (Viola tricolor L.; Diflufenican 25 g/ha): 10 | VIOTR Obs (Viola tricolor L.; Diflufenican 50 g/ha): 15 | CYPES Obs (Cyperus esculentus L.; Diflufenican 25 g/ha): 0 | CYPES Obs (Cyperus esculentus L.; Diflufenican 50 g/ha): 0 | TRZAS Obs ([5]; Diflufenican 25 g/ha): 0 | TRZAS Obs ([5]; Diflufenican 50 g/ha): 0

CC(C)N(C(=O)COc1nnc(C(F)(F)F)s1)c1ccc(F)cc1 [Flufenacet, N-(4-fluorophenyl)-N-(1-methylethyl)-2-[[5-(trifluoromethyl)-1,3,4-thiadiazol-2-yl]oxy]acetamide]
CHEAL Obs (Chenpodium album L.; Flufenacet 30 g/ha): 0 | CHEAL Obs (Chenpodium album L.; Flufenacet 60 g/ha): 0 | EPHHL Obs (Euphorbia heterohylla L.; Flufenacet 30 g/ha): 0 | EPHHL Obs (Euphorbia heterohylla L.; Flufenacet 60 g/ha): 0 | AMARE Obs ([1]; Flufenacet 30 g/ha): 0 | AMARE Obs ([1]; Flufenacet 60 g/ha): 0 | CIRAR Obs ([2]; Flufenacet 30 g/ha): 0 | CIRAR Obs ([2]; Flufenacet 60 g/ha): 0 | IPOHE Obs (Ipomoea hederacea; Flufenacet 30 g/ha): 0 | IPOHE Obs (Ipomoea hederacea; Flufenacet 60 g/ha): 0 | SETFA Obs (Setaria faberi Herrm.; Flufenacet 30 g/ha): 0 | SETFA Obs (Setaria faberi Herrm.; Flufenacet 60 g/ha): 0 | STEME Obs ([3]; Flufenacet 30 g/ha): 0 | STEME Obs ([3]; Flufenacet 60 g/ha): 0 | ABUTH Obs ([4]; Flufenacet 30 g/ha): 0 | ABUTH Obs ([4]; Flufenacet 60 g/ha): 0 | VIOTR Obs (Viola tricolor L.; Flufenacet 30 g/ha): 0 | VIOTR Obs (Viola tricolor L.; Flufenacet 60 g/ha): 0 | CYPES Obs (Cyperus esculentus L.; Flufenacet 30 g/ha): 0 | CYPES Obs (Cyperus esculentus L.; Flufenacet 60 g/ha): 0 | TRZAS Obs ([5]; Flufenacet 30 g/ha): 0 | TRZAS Obs ([5]; Flufenacet 60 g/ha): 0
